Three compounds from BindingDB's records for PubMed 2498315 (University of California San Diego, 1989) can be followed below.

Phospholipase A2, sequence (P04054 whole entry): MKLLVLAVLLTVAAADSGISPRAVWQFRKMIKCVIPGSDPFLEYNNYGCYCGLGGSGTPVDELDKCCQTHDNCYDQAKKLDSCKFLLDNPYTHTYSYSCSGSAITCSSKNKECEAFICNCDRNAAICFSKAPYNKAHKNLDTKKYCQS

The test concerns the target Phospholipase A2 (Homo sapiens, UniProt P04054). Put plainly: Phospholipase A2 Vesicle Assay. As to conditions: pH 9; 40 °C. From the text: Inhibition assay using phospholipase A2.
With `O=C(CBr)c1ccc(Br)cc1` [2-bromo-1-(4-bromophenyl)ethan-1-one], the 50% inhibitory concentration (IC50) turned out to be 550 µM. Under `CCCCCCCCCCC/C=C/C(C)(C)/C=C/CCCC(=O)O` [7,7-dimethyl-5,8-eicosadienoic acid] stands 16 µM; under `CC(C)=CCC/C(C)=C/C/C(C=O)=C\CCC1=CC(=O)OC1O` (stereo not drawn) [Manoalogue], 26 µM.

In general, IC50 refers to the concentration that gives 50% inhibition. The low end stands for inhibition by little substance, the high end for a need for much substance.
